Data on 4 compounds can be found in ChEMBL document CHEMBL1123097, “Structure-activity relationship in PAF-acether. 2. rac-1-O-Octadecyl-2-O-acetyl-3-O-[gamma-(dimethylamino)propyl]glycerol ” (J Med Chem, 1985).

Assay [1] is filed under the species Oryctolagus cuniculus. The assay can be described thus: In vitro platelet aggregating activity in washed rabbit platelets. The assay is classed as functional.
Assay [2] deals with Cavia porcellus. The assay can be described thus: Compound was evaluated in anesthetized guinea pigs, for the percentage drop in platelet counts between 2 min before and 1 min after injection. Format: functional.
For assay [3], the system named is Cavia porcellus. Put plainly: Compound was evaluated in anesthetized guinea pigs, for the percentage decrease of bronchoconstrictive activity. The assay is classed as functional, Lung. Also noted: scale not given: the % may be the effect or the level left.
For assay [4], the system named is Cavia porcellus. Put plainly: Compound was evaluated in anesthetized guinea pigs, for the percentage drop in platelet counts between 2 min before and 1 min after injection at 66 ng/kg. Format: functional.
Assay [5] is filed under the species Oryctolagus cuniculus. The assay can be described thus: In vitro platelet aggregating activity in washed rabbit platelets; No lysis observed. The assay is classed as functional.
Assay [6] relates to Cavia porcellus. Put plainly: Compound was evaluated in anesthetized guinea pigs, for the percentage drop in platelet counts between 2 min before and 1 min after injection at 33 ng/kg. Format: functional.
The test system of assay [7] is Cavia porcellus. The assay can be described thus: Compound was evaluated in anesthetized guinea pigs, for the percentage drop in platelet counts between 2 min before and 1 min after injection at 520ng/kg. The assay is classed as functional.

SMILES strings stand for the structures.

For orientation: EC50 means the concentration at which the effect is half-maximal. On to `CCCCCCCCCCCCCCCCCCOCC(COP(=O)([O-])OCC[N+](C)(C)C)OC(C)=O` (racemic), for which the midpoint of the response in the assay listed under Oryctolagus cuniculus [1], the EC50, lay at 0.22 nM. Moreover, the Aggregation in the assay with Cavia porcellus [2] is given as 0%. Also, the Activity in the assay with Cavia porcellus [3] stood at 100%.
Consider `CCCCCCCCCCCCCCCCCCOCC(COCCCN(C)C)OC(C)=O.Cl` (stereo not given), for which the Aggregation in the assay on Cavia porcellus [4] and in the assay with Cavia porcellus [6] was 0% throughout. A half-maximal effect in the assay listed under Oryctolagus cuniculus [5] (EC50) was put at 170 nM.
With `CCCCCCCCCCCCCCCCCCOCC(O)COCCC[N+](C)(C)C.[OH-]` (stereo not given), in the assay filed under Oryctolagus cuniculus [1], the 50% effective concentration (EC50) is greater than 4000 nM. The compound further showed an Aggregation in the assay on Cavia porcellus [7] of 100%.
With `CCCCCCCCCCCCCCCCCCOC[C@H](COP(=O)([O-])OCC[N+](C)(C)C)OC(C)=O`, in the assay filed under Oryctolagus cuniculus [1], the concentration for a half-maximal effect (EC50) was 0.057 nM. In the assay on Cavia porcellus [6], this compound returned an Aggregation of 48%.
